Data from ChEMBL document CHEMBL3885861, “Open TG-GATES”.

Species: Rattus norvegicus
Assay: Open TG-GATES - Regimen: Daily Repeat
Assay type: toxicity, organism-based, Sprague-Dawley
Parameters: regimen Daily Repeat, gender Male, age 6 weeks
Conditions: in vivo, po, route gavage; for APTT / Bas / Eos / Fbg / Hb / Ht / Lym / MCH / MCHC / MCV / Mono / Neu / PT / Plat / RBC / Ret / WBC: tissue Blood; for KIDNEY_L / KIDNEY_R / KIDNEY_TOTAL: tissue Kidney; for LIVER: tissue Liver; for A/G / ALP / ALT / AST / BUN / CRE / Ca / Cl / DBIL / GLC / IP / K / LDH / Na / PL / RALB / TBIL / TC / TG / TP / gamma-GTP: tissue Plasma
[1] = 15 mg/kg, 72 h, dose level Middle, time 3 day
[2] = 15 mg/kg, […], dose level Middle, time 7 day
[3] = 15 mg/kg, […], dose level Middle, time 14 day
[4] = 15 mg/kg, […], dose level Middle, time 28 day
[5] = 50 mg/kg, 72 h, dose level High, time 3 day
[6] = 50 mg/kg, […], dose level High, time 7 day
[7] = 50 mg/kg, […], dose level High, time 14 day
[8] = 50 mg/kg, […], dose level High, time 28 day

CC1=C(CC(=O)O)c2cc(F)ccc2/C1=C\c1ccc([S+](C)[O-])cc1 (centres undefined)
TERMINAL_BW [1]: 235.3 g
APTT [1]: 17.2 s
Bas [1]: 0%
Eos [1]: 1%
Fbg [1]: 309 mg/dL
Hb [1]: 14.2 g/dL
Ht [1]: 43%
Lym [1]: 75.8%
MCH [1]: 21.2 pg
MCHC [1]: 33%
MCV [1]: 64.3 fL
Mono [1]: 2.6%
Neu [1]: 20%
PT [1]: 13.7 s
Plat [1]: 120.1 x10_4/uL
RBC [1]: 671.2 x10_4/ul
Ret [1]: 7.1%
WBC [1]: 90 x10_2/uL
KIDNEY_L [1]: 1 g
KIDNEY_R [1]: 1 g
KIDNEY_TOTAL [1]: 2 g
LIVER [1]: 11.3 g
A/G [1]: 0.9
ALP [1]: 1549.6 IU/L
ALT [1]: 44.2 IU/L
AST [1]: 72.4 IU/L
BUN [1]: 15.8 mg/dL
CRE [1]: 0.2 mg/dL
Ca [1]: 11.1 mg/dL
Cl [1]: 106 meq/L
DBIL [1]: 0.012 mg/dL
GLC [1]: 185.2 mg/dL
IP [1]: 7.3 mg/dL
K [1]: 4 meq/L
LDH [1]: 93.8 IU/L
Na [1]: 142.8 meq/L
PL [1]: 159 mg/dL
RALB [1]: 2.7 g/dL
TBIL [1]: 0.018 mg/dL
TC [1]: 85.2 mg/dL
TG [1]: 98.6 mg/dL
TP [1]: 5.6 g/dL
gamma-GTP [1]: 1 IU/L
TERMINAL_BW [2]: 268.9 g
TERMINAL_BW [3]: 338.3 g
TERMINAL_BW [4]: 411.4 g
APTT [2]: 17.1 s
Bas [2]: 0%
Eos [2]: 1%
Fbg [2]: 295.2 mg/dL
Hb [2]: 14.4 g/dL
Ht [2]: 42.6%
Lym [2]: 77.6%
MCH [2]: 21.2 pg
MCHC [2]: 33.8%
MCV [2]: 62.6 fL
Mono [2]: 2.4%
Neu [2]: 18.8%
PT [2]: 13.5 s
Plat [2]: 137.1 x10_4/uL
RBC [2]: 681.2 x10_4/ul
Ret [2]: 6.1%
WBC [2]: 102.7 x10_2/uL
APTT [3]: 18 s
Bas [3]: 0%
Eos [3]: 1%
Fbg [3]: 325.2 mg/dL
Hb [3]: 14.6 g/dL
Ht [3]: 42.9%
Lym [3]: 73.2%
MCH [3]: 20.5 pg
MCHC [3]: 34.1%
MCV [3]: 60 fL
Mono [3]: 2.2%
Neu [3]: 23%
PT [3]: 13.7 s
Plat [3]: 131.8 x10_4/uL
RBC [3]: 715.4 x10_4/ul
Ret [3]: 4.6%
WBC [3]: 104.2 x10_2/uL
APTT [4]: 20.6 s
Bas [4]: 0%
Eos [4]: 0.8%
Fbg [4]: 263.6 mg/dL
Hb [4]: 14.9 g/dL
Ht [4]: 45.8%
Lym [4]: 76%
MCH [4]: 18.9 pg
MCHC [4]: 32.6%
MCV [4]: 58 fL
Mono [4]: 2%
Neu [4]: 20.8%
PT [4]: 12.6 s
Plat [4]: 111.8 x10_4/uL
RBC [4]: 792.6 x10_4/ul
Ret [4]: 3.7%
WBC [4]: 112.4 x10_2/uL
KIDNEY_L [2]: 1.2 g
KIDNEY_R [2]: 1.1 g
KIDNEY_TOTAL [2]: 2.3 g
KIDNEY_L [3]: 1.3 g
KIDNEY_R [3]: 1.2 g
KIDNEY_TOTAL [3]: 2.5 g
KIDNEY_L [4]: 1.4 g
KIDNEY_R [4]: 1.4 g
KIDNEY_TOTAL [4]: 2.8 g
LIVER [2]: 12.6 g
LIVER [3]: 15.2 g
LIVER [4]: 17.1 g
A/G [2]: 0.9
ALP [2]: 1603.8 IU/L
ALT [2]: 41.2 IU/L
AST [2]: 66.8 IU/L
BUN [2]: 17.2 mg/dL
CRE [2]: 0.2 mg/dL
Ca [2]: 11 mg/dL
Cl [2]: 104 meq/L
DBIL [2]: 0.016 mg/dL
GLC [2]: 183 mg/dL
IP [2]: 7.3 mg/dL
K [2]: 4.3 meq/L
LDH [2]: 87.4 IU/L
Na [2]: 141 meq/L
PL [2]: 187.6 mg/dL
RALB [2]: 2.8 g/dL
TBIL [2]: 0.016 mg/dL
TC [2]: 91.6 mg/dL
TG [2]: 171.6 mg/dL
TP [2]: 5.9 g/dL
gamma-GTP [2]: 1 IU/L
A/G [3]: 0.9
ALP [3]: 1475.4 IU/L
ALT [3]: 42.6 IU/L
AST [3]: 65.6 IU/L
BUN [3]: 17.4 mg/dL
CRE [3]: 0.3 mg/dL
Ca [3]: 10.9 mg/dL
Cl [3]: 105.6 meq/L
DBIL [3]: 0.018 mg/dL
GLC [3]: 183 mg/dL
IP [3]: 6.8 mg/dL
K [3]: 3.8 meq/L
LDH [3]: 75.4 IU/L
Na [3]: 143.4 meq/L
PL [3]: 173.4 mg/dL
RALB [3]: 2.8 g/dL
TBIL [3]: 0.042 mg/dL
TC [3]: 81.4 mg/dL
TG [3]: 191 mg/dL
TP [3]: 6 g/dL
gamma-GTP [3]: 1 IU/L
A/G [4]: 0.8
ALP [4]: 1137.2 IU/L
ALT [4]: 35.8 IU/L
AST [4]: 62 IU/L
BUN [4]: 18.2 mg/dL
CRE [4]: 0.3 mg/dL
Ca [4]: 10.7 mg/dL
Cl [4]: 103.8 meq/L
DBIL [4]: 0.008 mg/dL
GLC [4]: 178.4 mg/dL
IP [4]: 6.9 mg/dL
K [4]: 3.8 meq/L
LDH [4]: 64.6 IU/L
Na [4]: 142.8 meq/L
PL [4]: 153.4 mg/dL
RALB [4]: 2.8 g/dL
TBIL [4]: 0.076 mg/dL
TC [4]: 74.8 mg/dL
TG [4]: 162.8 mg/dL
TP [4]: 6.2 g/dL
gamma-GTP [4]: 1 IU/L
TERMINAL_BW [5]: 223.6 g
APTT [5]: 18.5 s
Bas [5]: 0.2%
Eos [5]: 1.2%
Fbg [5]: 396.2 mg/dL
Hb [5]: 13.9 g/dL
Ht [5]: 41.6%
Lym [5]: 71.2%
MCH [5]: 20.7 pg
MCHC [5]: 33.3%
MCV [5]: 62.3 fL
Mono [5]: 3.4%
Neu [5]: 24%
PT [5]: 13.3 s
Plat [5]: 112.6 x10_4/uL
RBC [5]: 668 x10_4/ul
Ret [5]: 6%
WBC [5]: 137.2 x10_2/uL
KIDNEY_L [5]: 1 g
KIDNEY_R [5]: 1 g
KIDNEY_TOTAL [5]: 2 g
LIVER [5]: 11 g
A/G [5]: 0.9
ALP [5]: 1504.6 IU/L
ALT [5]: 38.2 IU/L
AST [5]: 63 IU/L
BUN [5]: 15.6 mg/dL
CRE [5]: 0.2 mg/dL
Ca [5]: 11 mg/dL
Cl [5]: 106.8 meq/L
DBIL [5]: 0.008 mg/dL
GLC [5]: 178.4 mg/dL
IP [5]: 6.5 mg/dL
K [5]: 4.2 meq/L
LDH [5]: 96.4 IU/L
Na [5]: 141.8 meq/L
PL [5]: 164.4 mg/dL
RALB [5]: 2.6 g/dL
TBIL [5]: 0.016 mg/dL
TC [5]: 91.2 mg/dL
TG [5]: 129.8 mg/dL
TP [5]: 5.4 g/dL
gamma-GTP [5]: 1.2 IU/L
TERMINAL_BW [6]: 211.2 g
TERMINAL_BW [7]: 263.8 g
TERMINAL_BW [8]: 295.9 g
APTT [6]: 16.7 s
Bas [6]: 0.6%
Eos [6]: 1.2%
Fbg [6]: 522.6 mg/dL
Hb [6]: 11.5 g/dL
Ht [6]: 35.1%
Lym [6]: 55%
MCH [6]: 20.8 pg
MCHC [6]: 32.8%
MCV [6]: 63.4 fL
Mono [6]: 3.8%
Neu [6]: 38.8%
PT [6]: 13 s
Plat [6]: 252.7 x10_4/uL
RBC [6]: 553.6 x10_4/ul
Ret [6]: 11.8%
WBC [6]: 207.1 x10_2/uL
APTT [7]: 25.1 s
Bas [7]: 0%
Eos [7]: 1.7%
Fbg [7]: 447 mg/dL
Hb [7]: 10.8 g/dL
Ht [7]: 33.6%
Lym [7]: 56%
MCH [7]: 20.6 pg
MCHC [7]: 31.6%
MCV [7]: 65.2 fL
Mono [7]: 4%
Neu [7]: 37%
PT [7]: 13.3 s
Plat [7]: 243.4 x10_4/uL
RBC [7]: 517.7 x10_4/ul
Ret [7]: 16.3%
WBC [7]: 216.8 x10_2/uL
APTT [8]: 18.9 s
Bas [8]: 0%
Eos [8]: 1.7%
Fbg [8]: 577 mg/dL
Hb [8]: 10.2 g/dL
Ht [8]: 34.4%
Lym [8]: 51.7%
MCH [8]: 18.1 pg
MCHC [8]: 29.3%
MCV [8]: 61.7 fL
Mono [8]: 4.7%
Neu [8]: 41%
PT [8]: 11.9 s
Plat [8]: 221.3 x10_4/uL
RBC [8]: 561.3 x10_4/ul
Ret [8]: 16.6%
WBC [8]: 217.4 x10_2/uL
KIDNEY_L [6]: 1 g
KIDNEY_R [6]: 1 g
KIDNEY_TOTAL [6]: 2 g
KIDNEY_L [7]: 1.1 g
KIDNEY_R [7]: 1.1 g
KIDNEY_TOTAL [7]: 2.2 g
KIDNEY_L [8]: 1.3 g
KIDNEY_R [8]: 1.2 g
KIDNEY_TOTAL [8]: 2.5 g
LIVER [6]: 10.6 g
LIVER [7]: 13.4 g
LIVER [8]: 15.2 g
A/G [6]: 0.9
ALP [6]: 1360.6 IU/L
ALT [6]: 24.4 IU/L
AST [6]: 64 IU/L
BUN [6]: 39.8 mg/dL
CRE [6]: 0.3 mg/dL
Ca [6]: 10.6 mg/dL
Cl [6]: 104 meq/L
DBIL [6]: 0.032 mg/dL
GLC [6]: 154.2 mg/dL
IP [6]: 7.5 mg/dL
K [6]: 4.3 meq/L
LDH [6]: 96.8 IU/L
Na [6]: 141 meq/L
PL [6]: 157.6 mg/dL
RALB [6]: 2.4 g/dL
TBIL [6]: 0.066 mg/dL
TC [6]: 78.8 mg/dL
TG [6]: 104.2 mg/dL
TP [6]: 5.1 g/dL
gamma-GTP [6]: 5 IU/L
A/G [7]: 0.9
ALP [7]: 806 IU/L
ALT [7]: 28.7 IU/L
AST [7]: 49.3 IU/L
BUN [7]: 18.3 mg/dL
CRE [7]: 0.3 mg/dL
Ca [7]: 10.5 mg/dL
Cl [7]: 106.3 meq/L
DBIL [7]: 0.0133 mg/dL
GLC [7]: 156.3 mg/dL
IP [7]: 5.3 mg/dL
K [7]: 4.5 meq/L
LDH [7]: 74 IU/L
Na [7]: 141.7 meq/L
PL [7]: 203 mg/dL
RALB [7]: 2.5 g/dL
TBIL [7]: 0.03 mg/dL
TC [7]: 96.7 mg/dL
TG [7]: 326.7 mg/dL
TP [7]: 5.4 g/dL
gamma-GTP [7]: 1.7 IU/L
A/G [8]: 0.8
ALP [8]: 657 IU/L
ALT [8]: 23.3 IU/L
AST [8]: 47.3 IU/L
BUN [8]: 18.3 mg/dL
CRE [8]: 0.3 mg/dL
Ca [8]: 10 mg/dL
Cl [8]: 103 meq/L
DBIL [8]: 0.0067 mg/dL
GLC [8]: 149.3 mg/dL
IP [8]: 7 mg/dL
K [8]: 3.8 meq/L
LDH [8]: 92 IU/L
Na [8]: 141.7 meq/L
PL [8]: 181.7 mg/dL
RALB [8]: 2.3 g/dL
TBIL [8]: 0.06 mg/dL
TC [8]: 88.7 mg/dL
TG [8]: 261.7 mg/dL
TP [8]: 5.1 g/dL
gamma-GTP [8]: 1.7 IU/L
